“Also recorded” adds a separate entry of the source.
What was measured:
[1] = test system: GFAP; test: Western blot of GFAP expression in injected retinas; format: in vivo, mouse
Method: To determine the effect of α-AA on retinal glial cells, mouse retinas were dissected and homogenized in lysis buffer 3% sodium dodecyl sulfate (Sigma-Aldrich), 0.3 M sucrose (Sigma-Aldrich), 1 mM orthovanadium (Sigma-Aldrich)]. Protein concentrations were determined with a BCA assay (Pierce; Rockford, Ill.). Protein (20 μg) was loaded on a 10% sodium dodecyl sulfate-polyacrylamide gel and transferred to a nitrocellulose membrane. The blot was blocked in 1% bovine serum albumin (Sigma-Aldrich) and 4% dry milk in PBS and probed with primary antibodies against GFAP (1:1000; Chemicon; Temecula, Calif.) and β-actin (Sigma-Aldrich) as loading controls. After incubation with appropriate secondary antibodies conjugated to horseradish peroxidase (Jackson Immunochemicals; West Grove, Pa.), detection was performed with Super Signal West Pico (Pierce). Retinal astrocytes and Müller glia are central to the homeostatic and metabolic support of retinal neurons; whereas, after injury these cells develop glial scar that forms critical barriers to neuron regeneration and integration by retinal progenitor cells. […] Retinal glial morphology was examined by immunolabeling for glial marker GFAP and assessed the level of GFAP expression by Western blot at day 1-7 post injection. Expression of GFAP is widely detected in the normal mouse retinas (FIG. 1a).

[2] = test system: retinal neurons; test: Retinal neuron morphology and lamina structure after injection (electron microscopy, Nissl, recoverin, syntaxin); format: in vivo, mouse
Method: Mice were anesthetized by intraperitoneal injection of ketamine (62.5 mg/kg) and xylazine (12.5 mg/kg) and transcardially perfused with phosphate buffered saline (PBS) followed by 4% paraformaldehyde in PBS. Retinal flat-mounts or transverse retinal sections (14 μm) were preblocked with PBS containing 3% bovine serum albumin (Sigma-Aldrich, St. Louis, Mo.) and 0.3% Triton X (Sigma-Aldrich) and incubated, first, with primary antibody overnight, and then with secondary antibody for 1 hour at room temperature. The following antibodies were used: Cy3-conjugated monoclonal antibody against GFAP (1:1000; Sigma), Brn-3b (1:200; Santa Cruz Biotechnology; Santa Cruz, Calif.), mouse anti-rhodopsin (1:4000; Rho1D4), chick anti-cone-opsin (1:300), and Cy-2, Cy-3 or Cy-5-conjugated secondary antibody (Jackson ImmunoResearch; West Grove, Pa.). Assessment of morphological integration were quantified by counting EGFP+ cells located outside of transplanted cell clusters in retinal whole-mounts. Statistical significance was determined by either the two tailed student t test or ANOVA.
Mice were sacrificed 3 days after receiving the injection of α-AA (1 μg/μl) or saline as controls by injection of overdose of ketamine/xylazine followed by cervical dislocation, and the eyeballs were dissected, fixed with Karnovsky's fixative (pH 7.4) for 24 h. The quadrants of the eyes that received subretinal injection were dissected and embedded in Epon-Araldite. Semi-thin sections (1-2 μm) were stained with phenylenediamine phase staining. The sections were examined and photographed with a transmission electron microscope (EM410; Philips; Eindhoven, The Netherlands). Ten randomly selected retinal sections of each eye were photographed at 1900× magnification, and all Müller glial nuclei in the photomicrograph were counted.
Retinal sections were examined under electron microscopy, in which Müller glia were identified by their characteristic angular nuclei, dense chromatin and dark perinuclear cytoplasm (FIG. 1e-h). […]

[3] = test system: cone photoreceptor function; test: Flicker ERG under cone-isolation conditions in Rho-/- mice; format: in vivo, mouse; conditions: Rho-/- mice injected subretinally at 6 weeks old, 4 weeks later, vs saline contralateral eye
Method: Mice carrying rhodopsin deficiency (Rho^−/−) were used to determine if injection of alpha-aminoadipate (αAA) is sufficient to induce neuroregeneration from endogenous retinal progenitors, e.g., Muller cells, leading to preservation and restoration of photoreceptor cell function. Light-evoked photoreceptor responses and retinal functions in Rho^−/− mice that received αAA or saline injection were assessed using ERGS and whole cell-attached patch clamp.
To determine if αAA induces functional neuroregeneration in Rho^−/− mice, αAA was injected subretinally into the left eyes of 6 week-old Rho^−/− mice, while their contralateral eyes were injected with saline and served as controls. After a 4 week survival period to allow regeneration of new photoreceptors, mouse ERG was measured in both eyes and then performed immunohistochemistry to identify photoreceptor cells. Rho^−/− mice lack the rod photoreceptor cell component or ERG a-wave. As cones consist of ˜3% of photoreceptors in mice, it is difficult to assess cone action a-wave; therefore, flicker ERG photometry under cone-isolation conditions was used to measure cone functions. […]

[4] = test system: retinal ganglion cells; test: Cell-attached patch clamp of retinal ganglion cells from Rho-/- mice; design: species or system mouse; conditions: retinas extracted from treated eyes of Rho-/- mice, cells responding/recorded
Method: Mice carrying rhodopsin deficiency (Rho^−/−) were used to determine if injection of alpha-aminoadipate (αAA) is sufficient to induce neuroregeneration from endogenous retinal progenitors, e.g., Muller cells, leading to preservation and restoration of photoreceptor cell function. Light-evoked photoreceptor responses and retinal functions in Rho^−/− mice that received αAA or saline injection were assessed using ERGS and whole cell-attached patch clamp. […] Consistent with the presence of ERG b-waves in αAA-treated eye, light-elicited spiking responses in some of the ganglion cells were observed (n=4/9) (FIG. 15 A, B). Similar to findings from other types of retinal degenerative mice, an elevated level of background firing in these cells, likely due to the changes in the excitability of the presynaptic network formed by bipolar cells and amacrine cells, were also observed. In contrast, no light-elicited responses in ganglion cells were recorded from the saline-injected eyes (n=4/4, FIG. 14C). […] Additional vision and optomotor tests known in the art are conducted to assess vision restoration, such as the water maze test. Thus, a single intraocular injection of αAA may be sufficient to improve vision, in part by increasing the number of cones.

## NC(CCCC(=O)O)C(=O)O (stereo not drawn) [α-AA, alpha-aminoadipate]
[1]; by day 7 post injection
  GFAP expression, Western blot quantification: returned to a control level
[1]; day 3 post injection, vs normal or saline-injected controls
  GFAP expression, Western blot quantification: significant downregulation
[2]; 3 days after subretinal injection
  retinal neuron morphology (electron microscopy): No abnormality in retinal neuron morphology
[2]; day 3 after injection, vs saline-injected controls
  morphology and lamina structure (recoverin, syntaxin immunolabeling): No apparent changes; also recorded: No significant difference
[2]; mouse, in vivo
  neuronal toxicity: No neuronal toxicity
[3]
  ERG b-wave (flicker ERG): sizable b-wave
[4]
  ganglion cells with light-elicited spiking responses: 4/9
